Where two headings read alike, the source gives them in different places.
Key:
full-length human PLD2 = full-length human PLD2 (Homo sapiens (Human), UniProt O14939); test: Evaluation of human PLD2 enzyme inhibitory activity (Amplex Red / choline oxidase fluorescence); assay type: biochemical
In short: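 Released choline was read by Amplex Red fluorescence coupled to choline oxidase and HRP after a 60 min room-temperature reaction. Substrate was diheptanoyl phosphatidylcholine, added as a 6 mmol/L solution, and enzyme was FLAG-tagged full-length human PLD2 from Expi293F, added as a 6 nmol/L solution. Buffer was 50 mM HEPES pH 7.5 with 5% final DMSO.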

full-length human PLD1 = full-length human PLD1 (Homo sapiens (Human), UniProt Q13393); test: Evaluation of human PLD1 enzyme inhibitory activity (Amplex Red / choline oxidase fluorescence); assay type: biochemical
Sequence of full-length human PLD1 (Q13393 other isoform, or with tags, fused parts or gaps): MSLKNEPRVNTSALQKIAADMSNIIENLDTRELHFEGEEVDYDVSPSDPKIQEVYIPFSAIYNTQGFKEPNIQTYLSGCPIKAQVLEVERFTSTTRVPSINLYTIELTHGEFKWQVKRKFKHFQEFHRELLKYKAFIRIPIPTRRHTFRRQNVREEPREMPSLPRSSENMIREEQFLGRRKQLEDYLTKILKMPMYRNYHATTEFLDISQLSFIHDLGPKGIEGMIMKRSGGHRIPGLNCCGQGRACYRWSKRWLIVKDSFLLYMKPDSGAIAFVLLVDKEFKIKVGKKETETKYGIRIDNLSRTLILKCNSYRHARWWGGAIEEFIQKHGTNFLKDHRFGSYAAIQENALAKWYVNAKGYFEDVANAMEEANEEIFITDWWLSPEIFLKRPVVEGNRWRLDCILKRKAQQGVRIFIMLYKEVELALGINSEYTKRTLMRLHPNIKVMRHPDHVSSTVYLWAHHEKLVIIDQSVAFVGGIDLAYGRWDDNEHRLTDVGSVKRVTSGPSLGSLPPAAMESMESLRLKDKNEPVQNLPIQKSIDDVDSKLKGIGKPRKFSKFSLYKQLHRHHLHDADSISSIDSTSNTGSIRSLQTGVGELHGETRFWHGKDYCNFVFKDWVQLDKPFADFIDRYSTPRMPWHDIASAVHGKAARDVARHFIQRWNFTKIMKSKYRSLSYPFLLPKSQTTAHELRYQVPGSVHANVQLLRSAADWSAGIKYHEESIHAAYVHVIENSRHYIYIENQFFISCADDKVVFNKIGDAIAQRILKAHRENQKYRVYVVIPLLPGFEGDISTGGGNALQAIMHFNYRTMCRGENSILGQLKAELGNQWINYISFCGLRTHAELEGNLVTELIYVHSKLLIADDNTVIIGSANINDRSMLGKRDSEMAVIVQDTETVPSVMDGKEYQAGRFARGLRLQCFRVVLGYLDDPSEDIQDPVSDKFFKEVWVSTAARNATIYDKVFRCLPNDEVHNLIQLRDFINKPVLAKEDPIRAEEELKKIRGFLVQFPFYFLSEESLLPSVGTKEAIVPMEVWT
In short: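 Fluorescence read-out couples choline to Amplex Red via choline oxidase and peroxidase after a 60 min room-temperature reaction. Enzyme: FLAG-tagged full-length human PLD1 from Expi293F cells, anti-FLAG purified; substrate diheptanoyl phosphatidylcholine; HEPES pH 7.5 assay buffer with 0.01% NP-40, 0.1% BSA, 5% DMSO final.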

[1] = full-length human PLD2 enzyme, read-out: PLD2 IC50
[2] = full-length human PLD1 enzyme, read-out: PLD1 IC50

Sequence of full-length human PLD2 (O14939 whole entry): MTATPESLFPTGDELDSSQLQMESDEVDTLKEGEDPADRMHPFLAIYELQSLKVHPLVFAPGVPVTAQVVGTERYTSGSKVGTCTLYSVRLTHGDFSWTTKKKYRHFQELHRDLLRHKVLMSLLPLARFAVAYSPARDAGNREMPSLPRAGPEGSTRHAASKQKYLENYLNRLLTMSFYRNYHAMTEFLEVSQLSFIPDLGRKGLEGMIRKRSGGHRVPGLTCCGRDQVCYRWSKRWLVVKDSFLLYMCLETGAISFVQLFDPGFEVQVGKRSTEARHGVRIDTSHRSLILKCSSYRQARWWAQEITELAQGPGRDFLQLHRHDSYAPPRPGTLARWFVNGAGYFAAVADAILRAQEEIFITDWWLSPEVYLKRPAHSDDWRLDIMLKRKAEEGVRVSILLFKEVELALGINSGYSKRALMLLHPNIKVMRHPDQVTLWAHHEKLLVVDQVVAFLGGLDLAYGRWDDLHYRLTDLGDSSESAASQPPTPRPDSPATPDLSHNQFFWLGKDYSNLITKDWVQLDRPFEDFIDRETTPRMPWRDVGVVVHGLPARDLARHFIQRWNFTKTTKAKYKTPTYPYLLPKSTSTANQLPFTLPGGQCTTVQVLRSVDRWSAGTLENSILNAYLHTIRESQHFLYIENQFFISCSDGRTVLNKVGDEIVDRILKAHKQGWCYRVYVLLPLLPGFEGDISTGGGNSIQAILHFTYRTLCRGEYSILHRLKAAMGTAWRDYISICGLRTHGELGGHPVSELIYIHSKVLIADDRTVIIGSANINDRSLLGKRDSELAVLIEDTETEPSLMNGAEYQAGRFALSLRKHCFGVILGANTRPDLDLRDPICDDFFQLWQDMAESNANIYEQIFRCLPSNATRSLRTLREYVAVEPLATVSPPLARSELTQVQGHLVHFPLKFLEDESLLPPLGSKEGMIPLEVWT

Compound	IC50 (full-length human PLD2; [1])	IC50 (full-length human PLD1; [2])	further results
C[C@@H](C[C@H]1CC[C@]2(CC1)OC(=O)NN=C2c1ccc(F)cc1Br)NC(=O)C1(O)CC1 [Example 36]	137 nM	221 nM	–
CNC(=O)C(=O)N[C@@H](C)C[C@H]1CC[C@]2(CC1)OC(=O)NN=C2c1cnc(N2CCCC2)cc1C [Example 165]	< 10 nM	19 nM	–
CNC(=O)C(=O)N[C@@H](C)C[C@H]1CC[C@]2(CC1)OC(=O)NN=C2c1cnc(C(C)(C)O)cc1C [Example 185]	64 nM	68 nM	–
CNC(=O)C(=O)NC(C)C[C@H]1CC[C@@]2(CC1)OC(=O)NN=C2c1cc(C#N)ccc1Br (mixture of isomers) [Example 2-148]	–	–	IC50 (full-length human PLD2; column 2 of continuation tables 2-12 to 2-14, read-out: human PLD2 enzyme inhibitory activity IC50): 46 nM; IC50 (full-length human PLD1; column 1 of continuation tables 2-12 to 2-14, read-out: human PLD1 enzyme inhibitory activity IC50): 140 nM
CNC(=O)C(=O)N[C@@H](C)CN1CC[C@]2(C[C@@H]1C)OC(=O)NN=C2c1ccc(C#N)cc1Cl [Example 280]	316 nM	147 nM	–
CNC(=O)C(=O)N[C@@H](C)C[C@H]1CC[C@]2(CC1)OC(=O)NN=C2c1ccc(S(C)(=O)=O)cc1 [Example 10]	106 nM	92 nM	–
CNC(=O)C(=O)N[C@@H](C)C[C@H]1CC[C@]2(CC1)OC(=O)NN=C2c1cnc(N2CCC(F)(F)C2)cc1Cl [Example 241]	< 10 nM	17 nM	–
C[C@@H](C[C@]1(C#N)CC[C@@]2(CC1)OC(=O)NN=C2c1cc(OC(F)F)ccc1Br)NC(=O)c1cn(C)cn1 [Example 2-078]	< 10 nM	< 10 nM	–
CNC(=O)C(=O)N[C@@H](C)C[C@H]1CC[C@]2(CC1)OC(=O)NN=C2c1cnccc1C [Example 112]	20 nM	31 nM	–
COc1cc(C(=O)N[C@@H](C)C[C@H]2CC[C@]3(CC2)OC(=O)NN=C3c2ccc(F)cc2Br)on1 [Example 69]	< 10 nM	< 10 nM	–
CNC(=O)C(=O)N[C@@H](C)C[C@H]1CC[C@]2(CC1)OC(=O)NN=C2c1cnc(I)cc1C [Example 172]	12 nM	23 nM	–
CSc1ccccc1C1=NNC(=O)O[C@]12CC[C@@H](C[C@H](C)NC(=O)c1cc(Cl)no1)CC2 [Example 79]	< 10 nM	< 10 nM	–
CNC(=O)C(=O)N[C@@H](C)C[C@H]1CC[C@]2(CC1)OC(=O)NN=C2c1cnc(C)cc1C [Example 173]	10 nM	29 nM	–
Cc1cc(C(=O)N[C@@H](C)C[C@H]2CC[C@]3(CC2)OC(=O)NN=C3c2cnc(N3CCC(F)(F)C3)cc2C)[nH]n1 [Example 238]	< 10 nM	12 nM	–
C[C@@H](C[C@H]1CC[C@]2(CC1)OC(=O)NN=C2c1cccc2c1OCC2)NC(=O)c1cc(Cl)no1 [Example 108]	38 nM	25 nM	–
C[C@@H](C[C@H]1CC[C@]2(CC1)OC(=O)NN=C2c1cc(C#N)ccc1Br)NC(=O)C(=O)O [Example 2-171]	–	–	inhibition at 10 µM (full-length human PLD2; read-out: human PLD2 % inhibition at 10 μM): 23%; inhibition at 10 µM (full-length human PLD2; read-out: inhibition rate of PLD2 at 10 μM compound): 23%; inhibition at 10 µM (full-length human PLD1; read-out: human PLD1 % inhibition at 10 μM): 12%; inhibition at 10 µM (full-length human PLD1; read-out: inhibition rate of PLD1 at 10 μM compound): 12%
CNC(=O)C(=O)N[C@@H](C)CN1CCC2(CC1)OC(=O)NN=C2c1ccc(Br)cc1C(F)(F)F [Example 328]	34 nM	48 nM	–
Cc1cc(C(=O)N[C@@H](C)C[C@H]2CC[C@]3(CC2)OC(=O)NN=C3c2cc(OC(F)(F)F)ccc2Br)[nH]n1 [Example 304]	< 10 nM	< 10 nM	–
C[C@@H](C[C@H]1CC[C@]2(CC1)OC(=O)NN=C2c1cccc(OC(F)F)c1Br)NC(=O)c1cnn(C)c1 [Example 309]	< 10 nM	15 nM	–
Cc1cc(Br)ccc1C1=NNC(=O)O[C@]12CC[C@@H](C[C@H](C)NC(=O)NC1CC1)CC2 [Example 210]	1090 nM	296 nM	–
Cc1cc(C(=O)N[C@@H](C)CN2CCC3(CC2)OC(=O)NN=C3c2ccc(C#N)cc2Br)[nH]n1 [Example 207]	< 10 nM	25 nM	–

Compound	IC50 (full-length human PLD2; [1])	IC50 (full-length human PLD1; [2])	further results
CNC(=O)C(=O)N[C@@H](C)C[C@H]1CC[C@]2(CC1)OC(=O)NN=C2c1ccccc1SC [Example 74]	< 10 nM	< 10 nM	–
CNC(=O)C(=O)N[C@@H](C)CN1CCC2(CC1)OC(=O)NN=C2c1ccccc1SC(F)(F)F [Example 2-021]	15 nM	27 nM	–
C[C@@H](C[C@H]1CC[C@]2(CC1)OC(=O)NN=C2c1ccc(F)cc1Cl)NC(=O)c1cc2cc(F)ccc2o1 [Example 61]	11 nM	14 nM	–
CNC(=O)C(=O)N[C@@H](C)C[C@]1(C#N)CC[C@@]2(CC1)OC(=O)NN=C2c1cc(OC)ncc1Br [Example 2-077]	< 10 nM	15 nM	–
Cc1cc(C(=O)N[C@@H](C)C[C@H]2CC[C@]3(CC2)OC(=O)NN=C3c2cnc(N3C[C@H]4C[C@@H]3CO4)cc2C)[nH]n1 [Example 249]	< 10 nM	25 nM	–
Cc1cc(C(=O)N[C@@H](C)C[C@H]2CC[C@]3(CC2)OC(=O)NN=C3c2cnc(N3C[C@H]4C[C@@H]3CO4)cc2Cl)[nH]n1 [Example 239]	< 10 nM	18 nM	–
CNC(=O)C(=O)N[C@@H](C)C[C@H]1CC[C@]2(CC1)OC(=O)NN=C2c1ccc(C(F)(F)F)cc1C [Example 181]	< 10 nM	13 nM	–
CNC(=O)C(=O)N[C@@H](C)C[C@H]1CC[C@]2(CC1)OC(=O)NN=C2c1cnc(N2CCOCC2)cc1C [Example 164]	< 10 nM	38 nM	–
CNC(=O)C(=O)N[C@@H](C)C[C@H]1CC[C@]2(CC1)OC(=O)NN=C2c1cccc(Br)c1 [Example 24]	31 nM	41 nM	–
CC(=O)C(=O)N[C@@H](C)C[C@H]1CC[C@]2(CC1)OC(=O)NN=C2c1ccc(F)cc1Br [Example 30]	153 nM	123 nM	–
CNC(=O)C(=O)N[C@@H](C)CN1CCC2(CC1)OC(=O)NN=C2c1cc(C(=O)N(C)C)ccc1Br [Example 2-038]	11 nM	60 nM	–
Cc1cc(C(=O)N[C@@H](C)C[C@H]2CC[C@]3(CC2)OC(=O)NN=C3c2ccc(F)cc2Br)[nH]n1 [Example 12]	< 10 nM	< 10 nM	–
[2H]C([2H])([C@H](C)NC(=O)C(=O)NC)N1CCC2(CC1)OC(=O)NN=C2c1ccc(F)cc1Br [Example 333]	< 10 nM	25 nM	–
CNC(=O)C(=O)N[C@@H](C)C[C@H]1CC[C@]2(CC1)OC(=O)NN=C2c1cc(C(=O)OC)ccc1Br [Example 2-032]	< 10 nM	11 nM	–
CNC(=O)C(=O)N[C@@H](C)C[C@H]1CC[C@]2(CC1)OC(=O)NN=C2c1ccc(Br)cc1Br [Example 60]	< 10 nM	< 10 nM	–
CNC(=O)C(=O)N[C@@H](C)CN1CCC2(CC1)OC(=O)NN=C2c1cc(C(=O)NC)ccc1Br [Example 2-037]	13 nM	43 nM	–
Cc1cc(N2CCOCC2)ccc1C1=NNC(=O)O[C@]12CC[C@@H](C[C@H](C)NC(=O)N1CCOCC1)CC2 [Example 200]	82 nM	103 nM	–
C[C@@H](CN1CCC2(CC1)OC(=O)NN=C2c1ccc(C#N)cc1Br)NC(=O)c1cncn1C [Example 2-059]	505 nM	731 nM	–
C[C@@H](C[C@H]1CC[C@]2(CC1)OC(=O)NN=C2c1ccc(OC(F)(F)F)cc1Br)NC(=O)c1cc2ccccc2o1 [Example 87]	< 10 nM	39 nM	–
CC(C)c1cc(F)ccc1C1=NNC(=O)O[C@]12CC[C@@H](C[C@H](C)NC(=O)c1cc(Cl)no1)CC2 [Example 134]	30 nM	21 nM	–

Reference: patent US20240101572A1, “DIHYDROOXADIAZINONE COMPOUND AND PHARMACEUTICAL USE THEREOF” (Japan Tobacco Inc., priority 2022, published 2024)
